Values of other authors, collected in patent publication US20150164917A1 (VALPHARMA INTERNATIONAL S.P.A., priority 2012, published 2015).

Test system: uterine fibrosis
Details: 5 mg daily oral for 6 months, compared with higher doses

CC#C[C@]1(O)CC[C@H]2[C@@H]3CCC4=CC(=O)CCC4=C3[C@@H](c3ccc(N(C)C)cc3)C[C@@]21C [Mifepristone]
effects in the treatment of uterine fibrosis: effects comparable with those of higher doses of Mifepristone
